Measurements taken from US20120122860A1, “SOLID FORMS OF SULFONAMIDES AND AMINO ACIDS” (Plexxikon, Inc., priority 2009, published 2012).
pIC50: −log10 of the molar value.

How the values were obtained:
B-Raf V600E = B-Raf V600E (Homo sapiens, UniProt P15056, V600E); experiment: Kinase activity assay, B-Raf V600E; format: biochemical; conditions: read-out: activity toward kinase B-Raf V600E, IC50
Btk = Btk (Homo sapiens, UniProt Q06187); experiment: Kinase activity assay, Btk
Fms = Fms (Homo sapiens, UniProt P07333); experiment: Kinase activity assay, Fms
Fms, sequence (P07333 20-972): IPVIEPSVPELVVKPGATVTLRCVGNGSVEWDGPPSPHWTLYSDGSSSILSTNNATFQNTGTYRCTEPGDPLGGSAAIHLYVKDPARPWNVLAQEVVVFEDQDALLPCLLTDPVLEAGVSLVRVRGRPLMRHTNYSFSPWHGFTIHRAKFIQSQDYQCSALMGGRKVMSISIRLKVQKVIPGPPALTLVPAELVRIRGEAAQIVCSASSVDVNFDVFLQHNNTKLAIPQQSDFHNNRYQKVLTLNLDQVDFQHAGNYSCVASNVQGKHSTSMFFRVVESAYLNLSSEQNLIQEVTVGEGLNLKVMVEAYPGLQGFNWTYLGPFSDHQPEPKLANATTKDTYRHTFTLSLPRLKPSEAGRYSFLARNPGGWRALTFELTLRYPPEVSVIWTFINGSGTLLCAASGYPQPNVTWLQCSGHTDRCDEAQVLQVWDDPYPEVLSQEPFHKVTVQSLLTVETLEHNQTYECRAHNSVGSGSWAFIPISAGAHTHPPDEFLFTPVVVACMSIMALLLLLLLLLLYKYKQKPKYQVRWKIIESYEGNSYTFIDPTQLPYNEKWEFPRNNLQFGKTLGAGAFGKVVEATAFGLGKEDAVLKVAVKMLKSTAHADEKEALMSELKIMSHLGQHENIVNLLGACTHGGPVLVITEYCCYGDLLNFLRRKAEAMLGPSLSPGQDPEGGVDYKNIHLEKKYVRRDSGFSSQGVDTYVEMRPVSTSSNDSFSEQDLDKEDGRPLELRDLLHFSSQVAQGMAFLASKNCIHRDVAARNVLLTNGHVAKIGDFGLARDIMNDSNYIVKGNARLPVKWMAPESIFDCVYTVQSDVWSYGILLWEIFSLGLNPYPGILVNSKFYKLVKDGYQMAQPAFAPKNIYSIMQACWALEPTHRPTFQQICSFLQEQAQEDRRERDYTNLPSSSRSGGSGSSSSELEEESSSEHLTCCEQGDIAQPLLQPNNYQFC

Kdr = Kdr (Homo sapiens, UniProt P35968); experiment: Kinase activity assay, Kdr
Kit = Kit (Homo sapiens, UniProt P10721); experiment: Kinase activity assay, Kit
Kit, sequence (P10721 26-976): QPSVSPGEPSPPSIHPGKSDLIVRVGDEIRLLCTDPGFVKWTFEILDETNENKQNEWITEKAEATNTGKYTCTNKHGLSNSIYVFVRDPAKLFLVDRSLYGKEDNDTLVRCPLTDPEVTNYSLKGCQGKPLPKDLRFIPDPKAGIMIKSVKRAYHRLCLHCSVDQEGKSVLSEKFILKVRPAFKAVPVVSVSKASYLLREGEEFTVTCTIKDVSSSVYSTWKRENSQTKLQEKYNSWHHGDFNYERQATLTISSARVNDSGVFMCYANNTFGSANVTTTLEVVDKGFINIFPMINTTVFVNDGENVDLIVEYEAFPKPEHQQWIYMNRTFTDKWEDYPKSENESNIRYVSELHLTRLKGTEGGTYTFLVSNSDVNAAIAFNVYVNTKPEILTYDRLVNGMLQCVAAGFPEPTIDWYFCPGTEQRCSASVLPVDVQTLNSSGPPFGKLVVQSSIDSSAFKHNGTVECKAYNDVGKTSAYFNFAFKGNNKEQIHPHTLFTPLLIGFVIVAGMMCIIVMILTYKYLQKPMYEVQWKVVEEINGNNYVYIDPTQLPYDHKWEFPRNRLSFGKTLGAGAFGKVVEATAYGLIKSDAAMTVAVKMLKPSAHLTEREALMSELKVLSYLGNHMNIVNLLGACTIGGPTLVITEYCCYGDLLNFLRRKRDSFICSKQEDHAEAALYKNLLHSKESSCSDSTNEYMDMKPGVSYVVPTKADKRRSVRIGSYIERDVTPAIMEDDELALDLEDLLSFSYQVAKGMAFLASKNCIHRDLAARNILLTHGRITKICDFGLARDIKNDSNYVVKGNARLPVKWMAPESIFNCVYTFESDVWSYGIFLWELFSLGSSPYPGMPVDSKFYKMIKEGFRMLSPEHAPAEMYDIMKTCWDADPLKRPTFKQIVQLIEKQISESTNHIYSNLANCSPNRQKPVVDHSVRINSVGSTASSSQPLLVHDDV

TEC = molecular target: T1, TEC (Homo sapiens, UniProt P42680); experiment: Kinase activity assay, TEC
T1 sequence (P42680 1-631): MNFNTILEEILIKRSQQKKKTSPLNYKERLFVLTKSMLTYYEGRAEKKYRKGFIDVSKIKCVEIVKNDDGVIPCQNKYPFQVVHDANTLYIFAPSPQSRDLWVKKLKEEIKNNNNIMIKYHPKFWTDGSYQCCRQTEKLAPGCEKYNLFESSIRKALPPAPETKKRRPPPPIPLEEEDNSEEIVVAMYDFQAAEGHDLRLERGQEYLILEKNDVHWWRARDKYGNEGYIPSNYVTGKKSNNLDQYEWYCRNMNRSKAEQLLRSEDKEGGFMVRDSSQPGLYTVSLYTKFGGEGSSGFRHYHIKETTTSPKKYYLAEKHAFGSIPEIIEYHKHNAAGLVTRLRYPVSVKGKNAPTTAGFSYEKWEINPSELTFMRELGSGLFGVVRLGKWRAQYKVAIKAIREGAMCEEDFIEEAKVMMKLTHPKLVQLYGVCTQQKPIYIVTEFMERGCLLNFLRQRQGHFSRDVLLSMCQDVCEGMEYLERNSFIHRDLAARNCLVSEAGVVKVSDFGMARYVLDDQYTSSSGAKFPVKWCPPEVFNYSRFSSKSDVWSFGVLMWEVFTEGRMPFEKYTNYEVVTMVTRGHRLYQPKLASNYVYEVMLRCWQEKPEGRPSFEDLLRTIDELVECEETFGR

Src = Src (Homo sapiens, UniProt P12931); experiment: Kinase activity assay, Src
MAP4K4 = MAP4K4 (Homo sapiens, UniProt O95819); experiment: Kinase activity assay, MAP4K4
MAP4K4, sequence (O95819 whole entry): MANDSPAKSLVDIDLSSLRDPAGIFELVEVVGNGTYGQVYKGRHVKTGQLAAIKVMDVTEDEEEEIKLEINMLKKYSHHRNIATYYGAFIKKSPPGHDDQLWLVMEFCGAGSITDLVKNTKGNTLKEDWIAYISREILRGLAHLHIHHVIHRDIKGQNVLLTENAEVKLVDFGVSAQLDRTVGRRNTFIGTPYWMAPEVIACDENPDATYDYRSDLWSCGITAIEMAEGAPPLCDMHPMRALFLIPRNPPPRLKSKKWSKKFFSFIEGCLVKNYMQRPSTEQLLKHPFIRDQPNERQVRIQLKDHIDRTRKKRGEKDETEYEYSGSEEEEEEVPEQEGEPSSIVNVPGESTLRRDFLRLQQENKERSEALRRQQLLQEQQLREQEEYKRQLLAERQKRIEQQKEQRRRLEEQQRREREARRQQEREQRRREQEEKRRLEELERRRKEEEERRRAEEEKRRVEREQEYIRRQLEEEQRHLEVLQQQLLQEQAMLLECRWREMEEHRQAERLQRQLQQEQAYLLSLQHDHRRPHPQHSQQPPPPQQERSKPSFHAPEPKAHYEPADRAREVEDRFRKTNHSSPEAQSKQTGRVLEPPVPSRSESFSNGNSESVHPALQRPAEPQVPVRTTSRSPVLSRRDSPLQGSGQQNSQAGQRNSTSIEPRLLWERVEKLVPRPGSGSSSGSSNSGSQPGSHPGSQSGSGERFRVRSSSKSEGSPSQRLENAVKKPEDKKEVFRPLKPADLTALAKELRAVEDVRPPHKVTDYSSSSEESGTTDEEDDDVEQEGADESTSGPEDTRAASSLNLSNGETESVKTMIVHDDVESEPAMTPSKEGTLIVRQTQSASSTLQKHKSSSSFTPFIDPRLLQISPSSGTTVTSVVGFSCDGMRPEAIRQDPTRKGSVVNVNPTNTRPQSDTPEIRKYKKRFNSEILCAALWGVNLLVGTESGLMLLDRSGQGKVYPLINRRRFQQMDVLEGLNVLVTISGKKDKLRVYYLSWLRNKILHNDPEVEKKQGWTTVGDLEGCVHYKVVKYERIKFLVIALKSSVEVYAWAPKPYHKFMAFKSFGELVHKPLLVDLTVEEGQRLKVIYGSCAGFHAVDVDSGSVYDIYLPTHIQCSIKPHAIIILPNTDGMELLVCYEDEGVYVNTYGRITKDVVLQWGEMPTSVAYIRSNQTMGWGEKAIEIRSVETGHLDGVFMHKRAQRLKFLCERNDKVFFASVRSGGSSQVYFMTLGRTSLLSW

B-Raf = B-Raf (Homo sapiens, UniProt P15056); experiment: Kinase activity assay, B-Raf; format: biochemical; conditions: read-out: activity toward kinase B-Raf, IC50
B-Raf, sequence (P15056 whole entry): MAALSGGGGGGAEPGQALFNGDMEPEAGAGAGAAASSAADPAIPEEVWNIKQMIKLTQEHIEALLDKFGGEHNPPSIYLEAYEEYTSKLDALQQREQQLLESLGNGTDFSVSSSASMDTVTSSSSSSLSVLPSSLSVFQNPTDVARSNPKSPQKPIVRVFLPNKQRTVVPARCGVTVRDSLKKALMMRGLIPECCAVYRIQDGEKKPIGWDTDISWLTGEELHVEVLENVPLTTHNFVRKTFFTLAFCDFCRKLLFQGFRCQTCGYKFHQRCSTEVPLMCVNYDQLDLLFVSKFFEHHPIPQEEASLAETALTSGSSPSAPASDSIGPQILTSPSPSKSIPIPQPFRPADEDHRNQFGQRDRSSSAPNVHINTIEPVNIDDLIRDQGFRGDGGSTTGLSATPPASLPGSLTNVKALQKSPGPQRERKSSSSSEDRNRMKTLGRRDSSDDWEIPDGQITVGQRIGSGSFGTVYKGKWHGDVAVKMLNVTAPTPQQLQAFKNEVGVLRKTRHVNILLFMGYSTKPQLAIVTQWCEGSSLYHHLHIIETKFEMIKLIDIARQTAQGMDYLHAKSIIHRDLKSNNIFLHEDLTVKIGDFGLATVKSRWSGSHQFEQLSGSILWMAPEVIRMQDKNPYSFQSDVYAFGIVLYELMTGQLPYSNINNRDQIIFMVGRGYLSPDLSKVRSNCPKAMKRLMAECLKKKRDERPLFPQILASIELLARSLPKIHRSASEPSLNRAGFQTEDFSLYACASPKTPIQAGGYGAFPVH

C-Raf = C-Raf (Homo sapiens, UniProt P04049); experiment: Kinase activity assay, C-Raf

Measured: pIC50

B-Raf V600E, sequence (P15056 whole entry V600E): as the sequence (P15056 whole entry) above, with V600E counted along it
Btk, sequence (Q06187 whole entry): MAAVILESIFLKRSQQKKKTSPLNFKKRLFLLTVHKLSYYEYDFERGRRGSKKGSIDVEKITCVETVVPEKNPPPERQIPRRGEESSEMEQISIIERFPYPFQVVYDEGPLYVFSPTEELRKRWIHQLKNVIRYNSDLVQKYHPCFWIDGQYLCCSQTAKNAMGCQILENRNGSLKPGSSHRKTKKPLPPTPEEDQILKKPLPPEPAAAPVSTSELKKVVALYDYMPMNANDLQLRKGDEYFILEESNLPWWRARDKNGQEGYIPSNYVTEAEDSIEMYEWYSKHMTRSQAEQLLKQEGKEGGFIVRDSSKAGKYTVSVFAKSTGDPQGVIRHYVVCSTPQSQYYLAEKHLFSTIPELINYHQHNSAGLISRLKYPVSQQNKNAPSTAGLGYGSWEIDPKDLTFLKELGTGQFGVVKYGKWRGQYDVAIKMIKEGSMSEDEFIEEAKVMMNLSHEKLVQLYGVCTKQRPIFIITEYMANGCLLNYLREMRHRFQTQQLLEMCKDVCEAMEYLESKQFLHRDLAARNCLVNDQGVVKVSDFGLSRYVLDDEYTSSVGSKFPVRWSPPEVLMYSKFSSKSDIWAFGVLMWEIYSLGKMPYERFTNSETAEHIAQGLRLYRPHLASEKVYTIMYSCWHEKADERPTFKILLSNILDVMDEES

Cn1cc(-c2cnc3[nH]cc(C(=O)c4cccc(NS(=O)(=O)c5ccc(F)cc5)c4)c3c2)cn1 [P-2130, 4-Fluoro-N-{3-[5-(1-methyl-1H-pyrazol-4-yl)-1H-pyrrolo[2,3-b]pyridine-3-carbonyl]-phenyl}-benzenesulfonamide]
≥ 5.00: B-Raf V600E | Btk | Fms | Kdr | Kit | TEC

Cn1cc(-c2cnc3[nH]cc(C(=O)c4cccc(NS(=O)(=O)c5cccc(C(F)(F)F)c5)c4)c3c2)cn1 [P-2131, N-{3-[5-(1-Methyl-1H-pyrazol-4-yl)-1H-pyrrolo[2,3-b]pyridine-3-carbonyl]-phenyl}-3-trifluoromethyl-benzenesulfonamide]
≥ 5.00: B-Raf V600E | Btk | Fms | Kdr | Kit | TEC

Cn1cc(-c2cnc3[nH]cc(C(=O)c4cccc(NS(=O)(=O)c5cccc(Cl)c5)c4)c3c2)cn1 [P-2134, 3-Chloro-N-{3-[5-(1-methyl-1H-pyrazol-4-yl)-1H-pyrrolo[2,3-b]pyridine-3-carbonyl]-phenyl}-benzenesulfonamide]
≥ 5.00: B-Raf V600E | Btk | Fms | Kdr | Kit | TEC

Cn1cc(-c2cnc3[nH]cc(C(=O)c4cccc(NS(=O)(=O)c5cccc(F)c5)c4)c3c2)cn1 [P-2136, 3-Fluoro-N-{3-[5-(1-methyl-1H-pyrazol-4-yl)-1H-pyrrolo[2,3-b]pyridine-3-carbonyl]-phenyl}-benzenesulfonamide]
≥ 5.00: B-Raf V600E | Btk | Fms | Kdr | Kit | TEC

CS(=O)(=O)c1cccc(-c2cnc3[nH]cc(C(=O)c4cc(NS(=O)(=O)c5cccnc5)ccc4F)c3c2)c1 [P-2138, Pyridine-3-sulfonic acid {4-fluoro-3-[5-(3-methanesulfonyl-phenyl)-1H-pyrrolo[2,3-b]pyridine-3-carbonyl]-phenyl}-amide]
not listed: B-Raf V600E | B-Raf | C-Raf
≥ 5.00: all other assays above

CCCS(=O)(=O)Nc1ccc(F)c(C(=O)c2c[nH]c3ncc(-c4ccc(NC(C)=O)cc4)cc23)c1F [P-2161, N-(4-{3-[2,6-Difluoro-3-(propane-1-sulfonylamino)-benzoyl]-1H-pyrrolo[2,3-b]pyridin-5-yl}-phenyl)-acetamide]
not listed: MAP4K4 | B-Raf | C-Raf
≥ 5.00: all other assays above

CCCS(=O)(=O)Nc1ccc(F)c(C(=O)c2c[nH]c3ncc(-c4cnn(CCN5CCOCC5)c4)cc23)c1F [P-2177, Propane-1-sulfonic acid (2,4-difluoro-3-{5-[1-(2-morpholin-4-yl-ethyl)-1H-pyrazol-4-yl]-1H-pyrrolo[2,3-b]pyridine-3-carbonyl}-phenyl)-amide]
not listed: MAP4K4 | C-Raf
≥ 5.00: all other assays above

CCS(=O)(=O)Nc1ccc(F)c(C(=O)c2c[nH]c3ncc(-c4cnn(C)c4)cc23)c1F [P-2271, Ethanesulfonic acid {2,4-difluoro-3-[5-(1-methyl-1H-pyrazol-4-yl)-1H-pyrrolo[2,3-b]pyridine-3-carbonyl]-phenyl}-amide]
not listed: MAP4K4 | C-Raf
≥ 5.00: all other assays above

CCC(C)S(=O)(=O)Nc1ccc(F)c(C(=O)c2c[nH]c3ncc(OC)cc23)c1F (stereo not shown) [P-2308, Butane-2-sulfonic acid [2,4-difluoro-3-(5-methoxy-1H-pyrrolo[2,3-b]pyridine-3-carbonyl)-phenyl]-amide]
not listed: Fms | Kit | B-Raf
≥ 5.00: all other assays above

Cn1cc(-c2cnc3[nH]cc(C(=O)c4c(F)ccc(NS(=O)(=O)C5CC5)c4F)c3c2)cn1 [P-2352, Cyclopropanesulfonic acid {2,4-difluoro-3-[5-(1-methyl-1H-pyrazol-4-yl)-1H-pyrrolo[2,3-b]pyridine-3-carbonyl]-phenyl}-amide]
not listed: MAP4K4 | C-Raf
≥ 5.00: all other assays above

CCCS(=O)(=O)Nc1cccc(C(=O)c2c[nH]c3ncc(-c4cnn(C)c4)cc23)c1 [P-2454, Propane-1-sulfonic acid {3-[5-(1-methyl-1H-pyrazol-4-yl)-1H-pyrrolo[2,3-b]pyridine-3-carbonyl]-phenyl}-amide]
≥ 5.00: B-Raf V600E | Btk | Fms | Kdr | Kit | TEC

CCCCS(=O)(=O)Nc1cccc(C(=O)c2c[nH]c3ncc(-c4cnn(C)c4)cc23)c1 [P-2455, Butane-1-sulfonic acid {3-[5-(1-methyl-1H-pyrazol-4-yl)-1H-pyrrolo[2,3-b]pyridine-3-carbonyl]-phenyl}-amide]
≥ 5.00: B-Raf V600E | Btk | Fms | Kdr | Kit | TEC

CS(=O)(=O)c1cccc(-c2cnc3[nH]cc(C(=O)c4cccc(NS(=O)(=O)C5CCCCC5)c4)c3c2)c1 [P-2461, Cyclohexanesulfonic acid {3-[5-(3-methanesulfonyl-phenyl)-1H-pyrrolo[2,3-b]pyridine-3-carbonyl]-phenyl}-amide]
≥ 5.00: Btk | Fms | Kdr | Kit | TEC | MAP4K4

COc1cnc2[nH]cc(C(=O)c3cccc(NS(=O)(=O)C4CCCC4)c3)c2c1 [P-2464, Cyclopentanesulfonic acid [3-(5-methoxy-1H-pyrrolo[2,3-b]pyridine-3-carbonyl)-phenyl]-amide]
not listed: Src | B-Raf | C-Raf
≥ 5.00: all other assays above

O=C(c1cc(NS(=O)(=O)N2CCCCC2)ccc1F)c1c[nH]c2ncc(Cl)cc12 [P-2468, Piperidine-1-sulfonic acid [3-(5-chloro-1H-pyrrolo[2,3-b]pyridine-3-carbonyl)-4-fluoro-phenyl]-amide]
≥ 5.00: B-Raf V600E | Btk | Fms | Kdr | Kit | TEC
